Measurements reported in patent US20050250713A1, “11,12-Cyclic thiocarbamate macrolide antibacterial agents” (priority 2004, published 2005).
In brackets after ≈: the same amount, converted by molar mass.

Assays:
Experiment in all cases: MIC, microdilution broth method (NCCLS)
Type in all cases: cell-based
S. pneumoniae ATCC49619 = conditions: Streptococcus pneumoniae, cation adjusted Mueller-Hinton broth, 16-20 hours, read-out: MIC Values, C: S. pneumoniae ATCC49619
Protocol: (§1) Minimum inhibitory concentration (MIC) has been an indicator of in vitro antibacterial activity widely used in the art. The in vitro antimicrobial activity of the compounds was determined by the microdilution broth method following the test method from the National Committee for Clinical Laboratory Standards (NCCLS). This method is described in the NCCLS Document M7-A4, Vol. 17, No.2, “Methods for Dilution Antimicrobial Susceptibility Test for Bacteria that Grow Aerobically—Fourth Edition”, which is incorporated herein by reference. In this method two-fold serial dilutions of drug in cation adjusted Mueller-Hinton broth are added to wells in microdilution trays. The test organisms are prepared by adjusting the turbidity of actively growing broth cultures so that the final concentration of test organism after it is added to the wells is approximately 5×10^4 CFU/well. Following inoculation of the microdilution trays, the trays are incubated at 35 °C for 16-20 hours and then read. […] The amount of growth in the wells containing the test compound is compared with the amount of growth in the growth-control wells (no test compound) used in each tray. As set forth in Table 1, compounds of the present invention were tested against a variety of Gram positive and Gram negative pathogenic bacteria resulting in a range of activities depending on the organism tested.

H. influenzae ATCC49247 = conditions: Haemophilus influenzae, cation adjusted Mueller-Hinton broth, 16-20 hours, read-out: MIC Values, D: H. influenzae ATCC49247
Protocol: as §1

S. aureus ATCC29213 = conditions: Staphylococcus aureus, cation adjusted Mueller-Hinton broth, 16-20 hours
Protocol: as §1

E. faecalis ATCC29212 = conditions: Enterococcus faecalis, cation adjusted Mueller-Hinton broth, 16-20 hours, read-out: MIC Values, B: E. faecalis ATCC29212
Protocol: as §1

MIC (S. pneumoniae ATCC49619) [µg/mL]	MIC (H. influenzae ATCC49247) [µg/mL]	MIC (S. aureus ATCC29213) [µg/mL]	MIC (E. faecalis ATCC29212) [µg/mL]	Compound
0.12 (≈ 0.141 µM)	2 (≈ 2.35 µM)	0.5 (≈ 0.587 µM)	0.25 (≈ 0.293 µM)	CC[C@H]1OC(=O)[C@H](C)C(=O)[C@H](C)[C@@H](O[C@@H]2O[C@H](C)C[C@H](N(C)C)[C@H]2O)[C@](C)(OC(=O)NC/C=C/c2ccc(-c3cccnn3)cc2)C[C@@H](C)C(=O)[C@H](C)[C@H]2NC(=S)O[C@@]21C [Compound 4]
≤ 0.015	1 (≈ 1.21 µM)	0.25 (≈ 0.303 µM)	0.06 (≈ 0.0727 µM)	CC[C@H]1OC(=O)[C@H](C)C(=O)[C@H](C)[C@@H](O[C@@H]2O[C@H](C)C[C@H](N(C)C)[C@H]2O)[C@](C)(OC(=O)NC/C=C/c2cnc3ccccc3c2)C[C@@H](C)C(=O)[C@H](C)[C@H]2NC(=S)O[C@@]21C [Compound 5]
≤ 0.015	1 (≈ 1.17 µM)	0.5 (≈ 0.586 µM)	0.06 (≈ 0.0703 µM)	CC[C@H]1OC(=O)[C@H](C)C(=O)[C@H](C)[C@@H](O[C@@H]2O[C@H](C)C[C@H](N(C)C)[C@H]2O)[C@](C)(OC(=O)NC/C=C/c2ccc(Br)nc2)C[C@@H](C)C(=O)[C@H](C)[C@H]2NC(=S)O[C@@]21C [Compound 6]
≤ 0.015	1 (≈ 1.23 µM)	0.5 (≈ 0.613 µM)	0.06 (≈ 0.0735 µM)	CC[C@H]1OC(=O)[C@H](C)C(=O)[C@H](C)[C@@H](O[C@@H]2O[C@H](C)C[C@H](N(C)C)[C@H]2O)[C@](C)(OC(=O)NC/C=C/c2cnc(C3CC3)nc2)C[C@@H](C)C(=O)[C@H](C)[C@H]2NC(=S)O[C@@]21C [Compound 7]
	2 (≈ 2.42 µM)	0.12 (≈ 0.145 µM)	0.06 (≈ 0.0726 µM)	CC[C@H]1OC(=O)[C@H](C)C(=O)[C@H](C)[C@@H](O[C@@H]2O[C@H](C)C[C@H](N(C)C)[C@H]2O)[C@](C)(OC(=O)OC/C=C/c2cnc3ccccc3c2)C[C@@H](C)C(=O)[C@H](C)[C@H]2NC(=S)O[C@@]21C [Compound 9]
≤ 0.015	2 (≈ 2.34 µM)	0.25 (≈ 0.292 µM)	0.12 (≈ 0.14 µM)	CC[C@H]1OC(=O)[C@H](C)C(=O)[C@H](C)[C@@H](O[C@@H]2O[C@H](C)C[C@H](N(C)C)[C@H]2O)[C@](C)(OC(=O)OC/C=C/c2ccc(Br)nc2)C[C@@H](C)C(=O)[C@H](C)[C@H]2NC(=S)O[C@@]21C [Compound 10]
0.03 (≈ 0.0356 µM)	1 (≈ 1.19 µM)	0.5 (≈ 0.593 µM)	0.12 (≈ 0.142 µM)	CC[C@H]1OC(=O)[C@H](C)C(=O)[C@H](C)[C@@H](O[C@@H]2O[C@H](C)C[C@H](N(C)C)[C@H]2O)[C@](C)(OC(=O)NC/C(F)=C/c2cnc3ccccc3c2)C[C@@H](C)C(=O)[C@H](C)[C@H]2NC(=S)O[C@@]21C [Compound 12]
